Experimental data reported in US20140193846A1, “NOVEL APOC-I ISOFORMS AND THEIR USE AS BIOMARKERS AND RISK FACTORS OF ATHEROSCLEROTIC DISEASE” (SCOTT & WHITE HEALTHCARE, priority 2011, published 2014).
“Also recorded” adds a separate entry of the source.

Assays:
[1] = test system: ASMC apoptosis mediated by HDL2 from subject 10; experiment: Effect of N-SMase inhibitor on HDL2-induced ASMC apoptosis; type: cell-based, human; conditions: GW 4869 20 umol/L; for effect of inhibitor on HDL2-induced ASMC apoptosis (words): HDL2 from subject 10
Method: The same procedure described in detail by Kolmakova et al., Arterioscler. Thromb. Vasc. Biol., 24:264-269 (2004) was used. In brief, 10^3 human ASMC (Cambrex, Walkersville, Md.), were grown on sterilized glass cover slips in 6-well trays and treated with 2.5 μL of the various lipoprotein fractions per ml of medium. After 24 hour incubation, the medium was removed and cells were fixed and stained. The average ApoA-I concentration in the HDL2 and HDL3 fractions was ˜25 mg/dL and ˜40 mg/dL, respectively.
The effect of GW 4869 (20 umol/L), a noncompetitive inhibitor of N-SMase (Luberto C. et al., J. Biol Chem., 277(43):41128-41139 (2002)), on ASMC apoptosis mediated by HDL2 from subject 10 was studied and the results are shown in FIG. 9. […] The effect of HDL2 on apoptosis was also dose-dependent: when only 1 μl of HDL2 was used a 20.1% apoptosis of ASMC resulted as compared to ˜50% apoptosis when 2.5 μl HDL2 from the same subject was used.

[2] = test system: ICAM-1 expression by HAECs; experiment: ICAM-1 expression by HAECs exposed to lipoprotein fractions; type: cell-based, human; conditions: HAECs pre-treated with inhibitor
[3] = molecular target: T1, lecithin-cholesterol acyl transferase (LCAT) (Homo sapiens, UniProt P04180); conditions: % of the activity demonstrated by apoA-I; cited from earlier work
T1 sequence (P04180 25-440): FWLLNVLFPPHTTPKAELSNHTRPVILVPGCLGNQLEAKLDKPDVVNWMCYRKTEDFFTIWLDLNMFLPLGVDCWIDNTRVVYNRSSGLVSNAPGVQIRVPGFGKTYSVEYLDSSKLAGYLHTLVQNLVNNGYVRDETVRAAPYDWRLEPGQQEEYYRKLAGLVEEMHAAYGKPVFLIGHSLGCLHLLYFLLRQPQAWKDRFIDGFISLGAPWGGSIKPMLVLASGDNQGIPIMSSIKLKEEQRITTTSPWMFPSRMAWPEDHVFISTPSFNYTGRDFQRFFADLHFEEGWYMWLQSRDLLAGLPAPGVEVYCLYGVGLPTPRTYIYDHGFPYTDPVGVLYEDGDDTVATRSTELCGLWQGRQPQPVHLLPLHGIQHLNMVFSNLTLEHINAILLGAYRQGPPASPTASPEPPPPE

[4] = test system: Human aortic endothelial cells (HAECs); experiment: Nitric oxide (NO) release from HAECs incubated with HDL sub-fractions (DAF fluorescence); type: cell-based; conditions: HAECs pretreated, then incubated with apoptotic HDL2
Method: Human aortic endothelial cells (HAECs) were incubated with HDL sub-fractions for 12 h from a subject with apoptotic HDL2 (and CAD) and a subject with non-apoptotic HDL2 (without CAD). The cells were then stained with 4′5′-diamino flourescein 2-diacetate (DAF) (Invitrogen/Molecular Probes, CA), a fluorescent probe that allows for real-time detection of NO. Following incubation cells were washed with phosphate buffered saline (PBS) to remove unbound dye and mounted on a drop of 10% glycerol in PBS and photographed by fluorescence microscopy.

In the case of `O=C(/C=C/c1ccc(/C=C/C(=O)Nc2ccc(C3=NCCN3)cc2)cc1)Nc1ccc(C2=NCCN2)cc1` [GW4869], the “number of apoptotic cells with HDL2 plus inhibitor” value ([1]; 1 μL HDL2 from subject 10, 20.1% without inhibitor) is reported as 1.19%, the “effect of inhibitor on HDL2-induced ASMC apoptosis (words)” value [1] is reported as “inhibits apoptosis” and the “effect of inhibitor on HDL2-induced ASMC apoptosis (words)” value ([1]; listed as GW 4869) is reported as “almost completely prevented HDL2-induced apoptosis”.
With `CNC(=N)NCCC[C@H](N)C(=O)O` [NMLA, NG monomethyl-L-arginine] the “effect of pre-treating HAECs on HDL2-increased ICAM-1 expression” value [2] was “attenuated”.
In the case of “ApoC-I: mature 57 amino acid apolipoprotein C-I protein set forth in SEQ ID NO:6 (TPDVSSALDKLKEFGNTLEDKARELIBRINKQSELSAKMREWFSETFQKVKELKIDS; listed as Homo sapiens)”, the “LCAT stimulation, activity relative to apoA-I” value [3] is given as “approximately 78%”.
With `S=C(S)N1CCCC1` [PDTC, Pyrrolidine dithiocarbamate] the “effect of pre-treating HAECs on HDL2-increased ICAM-1 expression” value [2] was “attenuated” and the “effect of pretreatment on HDL2-induced NO release from HAECs” value [4] was “markedly reduced NO release; also recorded: production of NO was blocked”.
